Patent US20170232059A1, “COMPOSITION COMPRISING OXYTOCIN” (PEP-TONIC MEDICAL AB, priority 2012, published 2017)
Read-outs that look alike come from different tables or passages of the source. Starred links: 1 amine or outer side, 2 acyl side, 3 side chain; linkers in the order of their positions; H or OH if unused. Positions of bridges follow the written chain, without caps; N, C: chain ends. Residues, ends and D or L forms follow the SMILES beside them. X1 = O=C(CCC[*:2])[*:1]

Experiments:
[1] = Blood plasma levels of oxytocin after intravaginal administration (Example 1) and AUC calculation; type: in vivo, human
Protocol: The first value is taken before the treatment of intravaginal oxytocin has started.
Blood samples were collected from 20 individuals before and repeatedly after administration of oxytocin during a 90 minute period. […] (FIG. 2).
The amount of oxytocin which is absorbed following intravaginal administration of oxytocin expressed as area under the curve (AUC) can be calculated using the trapezoid method according to standardized pharmacokinetic procedures as the clearance rat for oxytocin (CL) is known (70 L/H).
As oxytocin levels were only measured during a 90 minute period it had to be assumed that the concentration of oxytocin after 2 hours continues to fall according to the half-life of oxytocin.

[2] = Bioavailability of vaginally administered oxytocin, study OXYPEP002; type: in vivo; conditions: human; for level at 0.5 h / level at 1 h / level at 2 h: post-dose; for level at 0.5 h: read-out: Average blood oxytocin level, 30 min Visit 2; for level at 1 h: read-out: Average blood oxytocin level, 60 min Visit 2; for level at 2 h: read-out: Average blood oxytocin level, 120 min Visit 2; for AUC(0-t): read-out: AUC0-30 min
Protocol: The objective of the present analysis was to estimate the bioavailability of oxytocin following vaginal administration of 100 (170 μg) or 400 IU (680 μg) oxytocin vaginal gel using data from study OXYPEP002 (Clinical trial protocol OXYPEP002). The oxytocin vaginal gel is Vagitocin® gel.
Data from study OXYPEP002 was used for the analysis. Study OXYPEP002 was conducted with the primary objective to investigate the dose-relationship of topical Vagitocin on the vaginal mucosal membrane (Clinical trial protocol OXYPEP002). OXYPEP002 was a double-blind, randomized, placebo controlled trial, with a parallel group design. Vagitocin (oxytocin gel) in two different doses (100 IU and 400 IU) was administered topically once daily during 7 weeks. A placebo gel with the same composition was used as comparator. In total 64 patients were to be included in the study. At the baseline visit (visit 1), blood sampling for oxytocin analysis were drawn for the first 24 included subjects. This sample represents the true baseline oxytocin observation. For the same 24 subjects, blood sampling for oxytocin analysis were also drawn at visit 2 (2 weeks ±2 days) with sampling pre-dose and at 30 min, 60 min and 120 min post-dose. Only subjects that completed the full sampling schedule were included in the analysis. The calculations were based on average blood oxytocin measurements for each dose level and sampling time point (Table 2).
The systemic oxytocin exposure following vaginally administered oxytocin was assessed by calculating the area under the blood concentration versus time curve (AUC) according to the trapezoidal rule. The data from visit 2 were used where the pre-dose sample was assumed to represent a new baseline observation.
The blood concentration of oxytocin had not returned to the baseline observation at the lasts sampling time point (120 min post-dose).
The endogenous oxytocin level (AUCbaseline) was calculated and subtracted from the total AUC to achieve the oxytocin exposure following the vaginally administered dose (AUCvaginal).
The bioavailability was calculated according to equation 1. As no intravenous dose was administered in study OXYPEP002, AUCiv was calculated according to available information in the literature (De Groot A N et al. 1995, Amico J A et al. 1987, Dawood M Y et al. 1980) according to equation 2.

[3] = in vivo; cited from earlier work
[4] = Skin penetration in Franz diffusion cells; type: in vitro ADME, pig; conditions: for share that has penetrated the skin: of 200 IU (approx. 0.4 mg)
Protocol: Skin penetration was performed in Franz diffusion cells using dermatomed pig's ear skin (thickness approx. 500 μm and surface area 0.64 cm^2). The receptor volume of each cell was 6 mL and citrate buffer, pH 4.5 was used as receptor media. The temperature was maintained at 32° C. and the stirring speed in the receptor chamber was kept at 300 rpm. Sampling was done in triplicate at 24 hours intervals for 4 days, i.e. 24, 48, 72 and 96 h. 1.5 mL of receptor media was taken and replaced with the same volume of citrate buffer. Immediately after collection the samples were kept at −20° C.
A water solution of oxytocin was prepared in a concentration of 4000 IU/g, which corresponds to ca 6.8 mg/g. The solution was pH adjusted with a 50 mM citrate buffer to 4.0 in order to achieve reasonable chemical stability. The oxytocin solutions were added in excess, ca 1 g, on the donor side of the skin and covered to prevent evaporation.
The samples were thawed just prior analysis by HPLC, method M272-0. The limit of quantification (QL) is 12.5 ng/mL or 1.25 ng injected amount.

[5] = cited from earlier work
[6] = six male subjects, intravenous 1 IU (De Groot 1995)

CC[C@H](C)[C@@H]1NC(=O)[C@H](Cc2ccc(O)cc2)NC(=O)[C@@H](N)CSSC[C@@H](C(=O)N2CCC[C@H]2C(=O)N[C@@H](CC(C)C)C(=O)NCC(N)=O)NC(=O)[C@H](CC(N)=O)NC(=O)[C@H](CCC(N)=O)NC1=O [oxytocin, Cys-Tyr-Ile-Gln-Asn-Cys-Pro-Leu-Gly-NH2]
fraction of the given dose absorbed ([1]; 100 IU intravaginal): 0.064 | plasma oxytocin levels at 15, 30, 60 and 90 minutes after administration ([1]; 100 and 400 IU intravaginal, FIG. 2): elevated in a pulse like fashion | fraction of the given dose absorbed ([1]; 400 IU intravaginal): 0.11 | plasma levels of oxytocin ([1]; following 100 and 400 IU intravaginal, 90 minute period): rose dose dependently | plasma oxytocin value obtained 10 hours after treatment ([1]; intravaginal, FIG. 2, vs before treatment): higher than those observed before treatment was started | absorbed via the epithelial membrane into the blood stream ([1]; topical composition comprising a non-ionic cellulose ether): about 10% | AUC ([2]; female, blood, 100 IU, 100 IU vaginal, read-out: AUC30-60 min): 0.0633 ng·h/mL | AUC ([2]; female, blood, 100 IU, 100 IU vaginal, read-out: AUC60-120 min): 0.11 ng·h/mL | AUC ([2]; female, blood, 100 IU, 100 IU vaginal, residual area alternative i, read-out: AUCresidual): 0.346 ng·h/mL | AUC ([2]; female, blood, 100 IU, 100 IU vaginal, residual area alternative i, read-out: AUCvaginal): 0.299 ng·h/mL | bioavailability ([2]; female, blood, 100 IU, 100 IU vaginal, residual area alternative i, read-out: Bioavailability): 12% | AUC ([2]; female, blood, 100 IU, 100 IU vaginal, residual area alternative ii, read-out: AUCresidual): 0.0322 ng·h/mL | AUC ([2]; female, blood, 100 IU, 100 IU vaginal, residual area alternative ii, read-out: AUCvaginal): 0.156 ng·h/mL | bioavailability ([2]; female, blood, 100 IU, 100 IU vaginal, residual area alternative ii, read-out: Bioavailability): 6.4% | AUC ([2]; female, blood, 400 IU, 400 IU vaginal, read-out: AUC30-60 min): 0.362 ng·h/mL | AUC ([2]; female, blood, 400 IU, 400 IU vaginal, read-out: AUC60-120 min): 0.504 ng·h/mL | AUC ([2]; female, blood, 400 IU, 400 IU vaginal, residual area alternative i, read-out: AUCresidual): 0.783 ng·h/mL | AUC ([2]; female, blood, 400 IU, 400 IU vaginal, residual area alternative i, read-out: AUCvaginal): 1.53 ng·h/mL | bioavailability ([2]; female, blood, 400 IU, 400 IU vaginal, residual area alternative i, read-out: Bioavailability): 16% | AUC ([2]; female, blood, 400 IU, 400 IU vaginal, residual area alternative ii, read-out: AUCresidual): 0.193 ng·h/mL | AUC ([2]; female, blood, 400 IU, 400 IU vaginal, residual area alternative ii, read-out: AUCvaginal): 1.1 ng·h/mL | bioavailability ([2]; female, blood, 400 IU, 400 IU vaginal, residual area alternative ii, read-out: Bioavailability): 11% | bioavailability ([2]; female, blood, vaginal, 100 and 400 IU, read-out: bioavailability, range over both dose levels and alternatives): 6.4 to 16% | level at 0.5 h ([2]; female, blood, 100 IU vaginal): 0.133 ng/mL | level at 1 h ([2]; female, blood, 100 IU vaginal): 0.12 ng/mL | level at 2 h ([2]; female, blood, 100 IU vaginal): 0.099 ng/mL | AUC(0-t) ([2]; female, blood, 100 IU vaginal): 0.0426 ng·h/mL | level at 0.5 h ([2]; female, blood, 400 IU vaginal): 0.816 ng/mL | level at 1 h ([2]; female, blood, 400 IU vaginal): 0.63 ng/mL | level at 2 h ([2]; female, blood, 400 IU vaginal): 0.378 ng/mL | AUC(0-t) ([2]; female, blood, 400 IU vaginal): 0.219 ng·h/mL | AUC ([2]; in vivo, iv, 1 ug, AUCiv, assumed intravenous dose of 1 μg and a CL of 70 L/h): 0.0143 ng·h/mL | half-life [3]: about 30 min | share that has penetrated the skin ([4]; after 24 h): 0.1% | oxytocin penetrated into receptor ([4]; after 24 h, 4000 IU/g water solution): 0.6 µg | share that has penetrated the skin ([4]; after 96 h): ~1% | oxytocin detected in the receptor chamber ([4]; after 96 hours, 4000 IU/g citrate buffered water solution, pH 4.0, 32° C.): 4 µg | CL ([5]; healthy male subjects (Amico 1987, Dawood 1980)): 70 to 90 L/h | clearance rate (CL) ([5]; known value used for AUC calculation): 70 L/H | terminal elimination half-life (t1/2) [5, 6]: 19.8 min | volume of distribution (V) [5, 6]: 33.2 L | total body CL ([5]; six male subjects, intravenous dose of 1 IU (1.7 μg), two-compartment model (De Groot 1995)): 67.1 L/h

CC[C@H](C)[C@@H]1NC(=O)[C@H](Cc2ccc(OC)cc2)NC(=O)CCCSC[C@@H](C(=O)N2CCC[C@H]2C(=O)N[C@@H](CC(C)C)C(=O)NCC(N)=O)NC(=O)[C@H](CC(N)=O)NC(=O)[C@H](CCC(N)=O)NC1=O [carbetocin] (Y(Me)IQNCPLG-NH2; linker N-5 via X1)
half-life relative to oxytocin [3]: about three times longer
